Assays:
[1] = test system: foliar fungal diseases of plants; assay type: in vivo; design: key to disease control grading, […] (VINE): 4: no disease; 3: trace −5% of disease on untreated plants; key to disease control grading, PUCCINIA RECONDITA (WHEAT) / disease control grading, VENTURIA INAEQUALIS (APPLE) / disease control grading, CERCOSPORA ARACHIDICOLA (PEANUT) / disease control grading, PH[…] (TOMATO) / disease control grading, P[…] (RICE): 4: no disease; 3: trace −5% of disease on untreated plants; 6-25% of disease on untreated plants; 1: 26-59% of disease on untreated plants; 60-100% of disease on untreated plants; conditions: applied to soil (roots) and foliage one or two days before inoculation; for disease control grading, CERCOSPORA ARACHIDICOLA (PEANUT): Cercospora arachidicola on peanut; for disease control grading, P[…] (RICE): P[…] on rice; for disease control grading, PH[…] (TOMATO): Ph[…] on tomato; for disease control grading, PUCCINIA RECONDITA (WHEAT): Puccinia recondita on wheat; for disease control grading, VENTURIA INAEQUALIS (APPLE): Venturia inaequalis on apple; for disease control grading, […] (VINE): […] on vine
Erysiphe graminis = test: Foliar fungal disease test on Erysiphe graminis, plants inoculated 24 hours before treatment (Table V); assay type: in vivo; design: key: 4: no disease; 3: trace −5% of disease on untreated plants; 6-25% of disease on untreated plants; 1: 26-59% of disease on untreated plants; 60-100% of disease on untreated plants; conditions: plants inoculated 24 hours before treatment

Row | SMILES | disease control grading, CERCOSPORA ARACHIDICOLA (PEANUT) [1] | disease control grading, P[…] (RICE) [1] | disease control grading, PH[…] (TOMATO) [1] | disease control grading, PUCCINIA RECONDITA (WHEAT) [1] | disease control grading, VENTURIA INAEQUALIS (APPLE) [1] | disease control grading, […] (VINE) [1] | disease control grading, ERYSIPHE GRAMINIS (BARLEY) (Erysiphe graminis)
1 | CO/C=C(/C(=O)OC)c1ccccc1COc1cccc(Oc2ccccc2OC)c1 [173 (Table I)] | 4 | 0 (60-100% of disease on untreated plants) | 4 | 4 | 4 | 4 | 3 (trace −5% of disease on untreated plants)
2 | CO/C=C(/C(=O)OC)c1ccccc1CSc1ccccc1 [1 (Table II)] | 0 (60-100% of disease on untreated plants) | 3 (trace −5% of disease on untreated plants) | 4 | 4 | 4 | 4 | 2 (6-25% of disease on untreated plants)
3 | CO/C=C(/C(=O)OC)c1ccccc1COc1cccc(Oc2cccc(C)c2)c1 [181 (Table I)] | 4 | 3 (trace −5% of disease on untreated plants) | 4 | 4 | 4 | 4 | 4
4 | CO/C=C(/C(=O)OC)c1ccccc1COc1cc(Cl)cc(OC)c1 [167 (Table I)] | 3 (trace −5% of disease on untreated plants) | 4 | 4 | 4 | 4 | 4 | 4
5 | CO/C=C(/C(=O)OC)c1ccccc1COc1ccc(Cl)c(Cl)c1 [45 (Table I)] | 4 | 4 | 4 | 4 | 4 | 4 | 3 (trace −5% of disease on untreated plants)
6 | CO/C=C(/C(=O)OC)c1ccccc1COc1cccc(C(F)(F)F)n1 [177 (Table I)] |  | 4 | 4 | 4 | 4 | 4 | 4
7 | CO/C=C(/C(=O)OC)c1ccccc1COc1cccc(F)c1 [155 (Table I)] | 4 | 4 | 4 | 4 | 4 | 4 | 4
8 | CO/C=C(/C(=O)OC)c1ccccc1COc1cccc(Br)c1 [166 (Table I)] | 4 | 4 | 4 | 4 | 4 | 4 | 4
9 | CO/C=C(/C(=O)OC)c1ccccc1COc1ccccc1[N+](=O)[O-] [33 (Table I)] | 4 | 4 | 3 (trace −5% of disease on untreated plants) | 4 | 4 | 4 | 2 (6-25% of disease on untreated plants)

Reference: US6653258B1 (priority 1987, dated 2003)
